Activity calls are given as the source filed them. The rule behind the calls is not given here.
Columns and labels:
BaF3 [1] = experiment: cells; conditions: Mus musculus, BaF3, 72 h
cells = conditions: Mus musculus, Ba/F3 EGFR-L858R, 72 h
Description: Antiproliferative activity against mouse Ba/F3 EGFR-L858R cells assessed as inhibition of cell proliferation measured after 3 days by CellTiter-Glo assay

[2] = target: T1, Tyrosine-protein kinase BTK (Homo sapiens, UniProt Q06187); experiment: Inhibition of biotinylated ibrutinib binding to BTK in human MINO cells at 0.2 to 10 uM preincubated for 3.5 hrs followed by biotinylated ibrutinib addition and incubated overnight by competitive pulldown based Western blot analysis; format: cell-based; conditions: dose 0.2-10 µM
[3] = target: T2, Tyrosine-protein kinase Blk (Homo sapiens, UniProt P51451); experiment: Inhibition of BLK (unknown origin) harboring cysteine at alphaD-1 position by LanthaScreen assay
[4] = target: Mitogen-activated protein kinase 1 and 3 (ERK2 and ERK1) (Mus musculus) (UniProt P63085+Q63844); experiment: Inhibition of ERK1/2 phosphorylation at T202/Y204 residues in mouse Ba/F3 EGFR-L858R cells at 0.2 to 10 uM incubated for 6 hrs by Western blot analysis; format: cell-based; conditions: dose 0.2-10 µM
[5] = target: T3, Tyrosine-protein kinase JAK3 (Homo sapiens, UniProt P52333); experiment: Inhibition of JAK3 (unknown origin) harboring cysteine at alphaD-1 position by LanthaScreen assay
T3 sequence (P52333 whole entry): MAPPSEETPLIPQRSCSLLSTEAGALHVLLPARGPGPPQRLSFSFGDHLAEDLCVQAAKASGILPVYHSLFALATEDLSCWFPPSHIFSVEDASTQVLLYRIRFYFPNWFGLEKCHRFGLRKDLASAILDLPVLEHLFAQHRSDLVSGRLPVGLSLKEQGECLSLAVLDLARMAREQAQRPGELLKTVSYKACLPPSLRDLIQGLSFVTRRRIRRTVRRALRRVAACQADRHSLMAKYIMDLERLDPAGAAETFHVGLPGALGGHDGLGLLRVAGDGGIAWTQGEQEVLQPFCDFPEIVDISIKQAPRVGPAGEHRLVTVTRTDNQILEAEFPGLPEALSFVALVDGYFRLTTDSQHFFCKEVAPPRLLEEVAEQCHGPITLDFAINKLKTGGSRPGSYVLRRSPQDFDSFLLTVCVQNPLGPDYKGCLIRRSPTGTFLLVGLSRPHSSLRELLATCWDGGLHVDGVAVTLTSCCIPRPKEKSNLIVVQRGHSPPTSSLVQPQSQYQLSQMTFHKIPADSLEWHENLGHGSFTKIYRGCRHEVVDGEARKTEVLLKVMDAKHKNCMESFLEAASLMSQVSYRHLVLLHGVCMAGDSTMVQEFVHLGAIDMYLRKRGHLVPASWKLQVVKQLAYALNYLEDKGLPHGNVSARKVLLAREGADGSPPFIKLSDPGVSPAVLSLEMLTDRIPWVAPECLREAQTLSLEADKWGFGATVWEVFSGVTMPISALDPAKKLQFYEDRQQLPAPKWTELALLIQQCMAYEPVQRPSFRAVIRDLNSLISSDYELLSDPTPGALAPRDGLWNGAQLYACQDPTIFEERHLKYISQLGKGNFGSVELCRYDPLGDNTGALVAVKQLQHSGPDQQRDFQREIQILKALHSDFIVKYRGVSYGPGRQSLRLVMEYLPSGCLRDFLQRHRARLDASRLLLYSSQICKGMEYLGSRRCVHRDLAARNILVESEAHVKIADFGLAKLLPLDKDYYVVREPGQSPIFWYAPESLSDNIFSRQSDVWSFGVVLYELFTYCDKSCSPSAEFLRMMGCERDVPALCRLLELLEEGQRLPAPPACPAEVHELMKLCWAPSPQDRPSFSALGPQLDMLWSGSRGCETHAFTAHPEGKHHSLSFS

[6] = target: T1, Tyrosine-protein kinase BTK; experiment: Displacement of K-10 tracer from wild type BTK in HEK293T cells expressing NanoLuc preincubated for 3 hrs followed by tracer addition and measured after 1 hr by NanoBRET analysis; format: cell-based
[7] = target: RAC-alpha serine/threonine-protein kinase (Mus musculus) (UniProt P31750); experiment: Inhibition of AKT phosphorylation at S473 residue in mouse Ba/F3 EGFR-L858R cells at 0.2 to 10 uM incubated for 6 hrs by Western blot analysis; format: cell-based; conditions: dose 0.2-10 µM
[8] = target: T2, Tyrosine-protein kinase Blk; experiment: Displacement of K-4 tracer from wild type BLK in HEK293T cells expressing NanoLuc preincubated for 3 hrs followed by tracer addition and measured after 1 hr by NanoBRET analysis; format: cell-based
BaF3 [9] = experiment: Inhibition of biotinylated osimertinib binding to EGFR L858R mutant in mouse BaF3 cells at 0.2 to 10 uM preincubated for 3 hrs followed by biotinylated osimertinib addition and incubated overnight by competitive pulldown based Western blot analysis; format: cell-based; conditions: dose 0.2-10 µM
[10] = target: Epidermal growth factor receptor (Mus musculus) (UniProt Q01279); experiment: Inhibition of EGFR phosphorylation at Y1068 residue in mouse Ba/F3 EGFR-L858R cells at 0.2 to 10 uM incubated for 6 hrs by Western blot analysis; format: cell-based; conditions: dose 0.2-10 µM
[11] = target: T1, Tyrosine-protein kinase BTK; experiment: Inhibition of BTK (unknown origin) harboring cysteine at alphaD-1 position by LanthaScreen assay
[12] = target: Epidermal growth factor receptor (Homo sapiens, UniProt P00533, L858R); experiment: Inhibition of EGFR L858R mutant (unknown origin) harboring cysteine at alphaD-1 position by LanthaScreen assay
[13] = target: T4, Tyrosine-protein kinase JAK3 (Homo sapiens) (UniProt P52333); experiment: Binding affinity to JAK3 JH1 domain (unknown origin) assessed as covalent bond formation by measuring cysteine 909-labeling by mass spectrometry analysis relative to control
T4 sequence (whole entry): T3 sequence (P52333 whole entry)

[14] = target: T5, Dual specificity mitogen-activated protein kinase kinase 7 (Homo sapiens) (UniProt O14733); experiment: Binding affinity to human MKK7 harboring cysteine at alphaD-1 position at 10 uM by Kinomescan analysis
T5 sequence (whole entry): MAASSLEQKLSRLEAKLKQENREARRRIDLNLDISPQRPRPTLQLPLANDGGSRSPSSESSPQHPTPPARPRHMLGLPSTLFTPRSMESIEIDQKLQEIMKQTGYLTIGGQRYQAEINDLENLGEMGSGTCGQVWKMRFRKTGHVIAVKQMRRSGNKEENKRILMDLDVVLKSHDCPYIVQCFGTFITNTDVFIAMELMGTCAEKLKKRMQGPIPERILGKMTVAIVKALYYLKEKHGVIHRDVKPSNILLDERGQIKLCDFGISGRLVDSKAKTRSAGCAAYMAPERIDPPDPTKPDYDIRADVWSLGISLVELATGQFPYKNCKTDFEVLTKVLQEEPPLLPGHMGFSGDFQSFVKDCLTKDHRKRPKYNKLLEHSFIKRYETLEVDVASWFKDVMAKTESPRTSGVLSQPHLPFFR

[15] = target: T4, Tyrosine-protein kinase JAK3 (Homo sapiens); experiment: Binding affinity to human JAK3 JH1 domain harboring cysteine at alphaD-1 position at 10 uM by Kinomescan analysis
[16] = target: Epidermal growth factor receptor (Homo sapiens) (UniProt P00533); experiment: Binding affinity to human EGFR harboring cysteine at alphaD-1 position at 10 uM by Kinomescan analysis
[17] = target: T1, Tyrosine-protein kinase BTK; experiment: Binding affinity to human BTK harboring cysteine at alphaD-1 position at 10 uM by Kinomescan analysis
[18] = target: Epidermal growth factor receptor (Homo sapiens) (UniProt P00533); experiment: Binding affinity to N-terminal protease cleavable His-GST tagged wild type human EGFR (696 to 1022 residues) expressed as baculovirus infected Sf9 cells assessed as mass shift at 10 fold molar excess incubated for 2 hrs by LC-MS/MS analysis
[19] = system: Tyrosine-protein kinase BTK (Homo sapiens), Q06187 [C481S]; experiment: Displacement of K-10 tracer from BTK C481S mutant in HEK293T cells expressing NanoLuc preincubated for 3 hrs followed by tracer addition and measured after 1 hr by NanoBRET analysis; format: cell-based; conditions: time 4.0 hrs
[20] = system: Epidermal growth factor receptor (Homo sapiens), P00533 [L858R,T790M]; experiment: Binding affinity to Cys797 residue of trypsin digested EGFR L858R/T790M mutant (unknown origin) by Nano-LC-MS/MS analysis
[21] = target: T1, Tyrosine-protein kinase BTK; experiment: Binding affinity to BTK (unknown origin) assessed as covalent bond formation by measuring cysteine 481-labeling by mass spectrometry analysis relative to control
HEK293T = experiment: Displacement of K-4 tracer from BLK C319S mutant in HEK293T cells expressing NanoLuc preincubated for 3 hrs followed by tracer addition and measured after 1 hr by NanoBRET analysis; format: cell-based; conditions: Homo sapiens, time 4.0 hrs
BaF3 [22] = experiment: Inhibition of biotinylated osimertinib binding to EGFR L858R mutant in mouse BaF3 cells preincubated for 3 hrs followed by biotinylated osimertinib addition and incubated overnight by competitive pulldown based Western blot analysis; format: cell-based; conditions: dose 0.2-10 µM
[23] = target: T6, Dual specificity mitogen-activated protein kinase kinase 5 (Homo sapiens, UniProt Q13163); experiment: Inhibition of MEK5 (unknown origin) by LanthaScreen assay
T6 sequence (Q13163 whole entry): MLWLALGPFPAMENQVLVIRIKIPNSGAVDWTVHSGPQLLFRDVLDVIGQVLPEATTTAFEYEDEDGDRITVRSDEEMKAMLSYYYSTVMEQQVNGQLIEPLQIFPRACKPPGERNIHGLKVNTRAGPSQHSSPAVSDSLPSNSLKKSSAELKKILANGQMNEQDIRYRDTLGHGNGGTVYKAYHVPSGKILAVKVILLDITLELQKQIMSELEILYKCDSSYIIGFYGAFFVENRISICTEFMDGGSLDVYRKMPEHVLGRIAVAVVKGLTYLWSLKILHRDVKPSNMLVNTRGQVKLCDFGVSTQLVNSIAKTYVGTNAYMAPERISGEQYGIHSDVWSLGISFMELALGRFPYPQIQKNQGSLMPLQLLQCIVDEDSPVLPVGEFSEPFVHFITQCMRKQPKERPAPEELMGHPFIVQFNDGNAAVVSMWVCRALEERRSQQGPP

T1 sequence (Q06187 whole entry): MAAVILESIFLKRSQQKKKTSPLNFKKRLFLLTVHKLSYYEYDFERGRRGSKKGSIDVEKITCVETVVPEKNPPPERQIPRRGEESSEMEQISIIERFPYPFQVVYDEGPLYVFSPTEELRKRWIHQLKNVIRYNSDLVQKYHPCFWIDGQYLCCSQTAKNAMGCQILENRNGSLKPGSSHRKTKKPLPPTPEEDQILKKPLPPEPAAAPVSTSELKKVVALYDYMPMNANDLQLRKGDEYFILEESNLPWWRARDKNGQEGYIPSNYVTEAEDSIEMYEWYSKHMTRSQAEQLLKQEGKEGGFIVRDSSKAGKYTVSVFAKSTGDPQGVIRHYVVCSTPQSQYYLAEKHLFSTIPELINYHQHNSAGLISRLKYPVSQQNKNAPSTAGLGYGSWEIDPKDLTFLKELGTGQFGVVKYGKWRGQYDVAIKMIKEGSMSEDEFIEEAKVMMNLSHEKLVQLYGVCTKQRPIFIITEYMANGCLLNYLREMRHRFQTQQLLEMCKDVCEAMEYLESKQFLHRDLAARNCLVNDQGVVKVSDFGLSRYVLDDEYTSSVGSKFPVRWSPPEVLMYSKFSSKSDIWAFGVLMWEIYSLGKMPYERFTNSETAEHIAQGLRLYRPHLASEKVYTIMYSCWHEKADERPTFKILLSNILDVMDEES
RAC-alpha serine/threonine-protein kinase (Mus musculus), sequence (P31750 whole entry): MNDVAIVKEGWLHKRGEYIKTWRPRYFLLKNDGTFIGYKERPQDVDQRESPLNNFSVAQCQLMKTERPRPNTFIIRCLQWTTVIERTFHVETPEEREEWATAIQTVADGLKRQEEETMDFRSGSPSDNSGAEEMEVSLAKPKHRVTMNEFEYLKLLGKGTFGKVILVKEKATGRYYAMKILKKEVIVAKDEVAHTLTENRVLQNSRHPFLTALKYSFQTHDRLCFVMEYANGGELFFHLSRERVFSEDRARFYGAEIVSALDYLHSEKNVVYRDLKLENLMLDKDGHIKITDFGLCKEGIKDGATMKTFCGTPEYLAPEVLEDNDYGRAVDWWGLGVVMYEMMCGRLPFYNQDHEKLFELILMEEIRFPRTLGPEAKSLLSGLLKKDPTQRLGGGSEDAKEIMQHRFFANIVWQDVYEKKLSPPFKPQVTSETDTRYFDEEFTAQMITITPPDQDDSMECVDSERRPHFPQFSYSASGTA
Mitogen-activated protein kinase 1 and 3 (ERK2 and ERK1) (Mus musculus), sequence (P63085 whole entry, looked up): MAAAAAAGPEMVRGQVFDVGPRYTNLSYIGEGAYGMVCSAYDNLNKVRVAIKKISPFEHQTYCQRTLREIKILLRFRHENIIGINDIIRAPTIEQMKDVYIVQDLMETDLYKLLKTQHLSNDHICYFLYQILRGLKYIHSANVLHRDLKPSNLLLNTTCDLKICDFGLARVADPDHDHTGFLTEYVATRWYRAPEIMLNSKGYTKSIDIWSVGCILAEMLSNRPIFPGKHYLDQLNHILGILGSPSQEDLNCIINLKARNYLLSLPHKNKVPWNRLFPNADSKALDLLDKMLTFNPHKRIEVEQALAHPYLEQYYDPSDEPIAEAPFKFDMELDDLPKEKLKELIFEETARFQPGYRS
Mitogen-activated protein kinase 1 and 3 (ERK2 and ERK1) (Mus musculus), sequence (Q63844 whole entry, looked up): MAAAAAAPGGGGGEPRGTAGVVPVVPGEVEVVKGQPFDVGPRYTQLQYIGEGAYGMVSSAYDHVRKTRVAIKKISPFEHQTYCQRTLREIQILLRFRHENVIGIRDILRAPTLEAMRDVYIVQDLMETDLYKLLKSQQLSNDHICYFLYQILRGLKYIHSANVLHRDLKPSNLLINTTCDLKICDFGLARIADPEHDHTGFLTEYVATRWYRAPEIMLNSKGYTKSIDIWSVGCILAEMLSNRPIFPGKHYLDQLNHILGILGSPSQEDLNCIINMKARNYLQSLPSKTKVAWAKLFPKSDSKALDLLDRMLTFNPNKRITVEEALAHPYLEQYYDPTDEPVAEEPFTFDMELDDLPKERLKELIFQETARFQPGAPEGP
Epidermal growth factor receptor (Mus musculus), sequence (Q01279 whole entry): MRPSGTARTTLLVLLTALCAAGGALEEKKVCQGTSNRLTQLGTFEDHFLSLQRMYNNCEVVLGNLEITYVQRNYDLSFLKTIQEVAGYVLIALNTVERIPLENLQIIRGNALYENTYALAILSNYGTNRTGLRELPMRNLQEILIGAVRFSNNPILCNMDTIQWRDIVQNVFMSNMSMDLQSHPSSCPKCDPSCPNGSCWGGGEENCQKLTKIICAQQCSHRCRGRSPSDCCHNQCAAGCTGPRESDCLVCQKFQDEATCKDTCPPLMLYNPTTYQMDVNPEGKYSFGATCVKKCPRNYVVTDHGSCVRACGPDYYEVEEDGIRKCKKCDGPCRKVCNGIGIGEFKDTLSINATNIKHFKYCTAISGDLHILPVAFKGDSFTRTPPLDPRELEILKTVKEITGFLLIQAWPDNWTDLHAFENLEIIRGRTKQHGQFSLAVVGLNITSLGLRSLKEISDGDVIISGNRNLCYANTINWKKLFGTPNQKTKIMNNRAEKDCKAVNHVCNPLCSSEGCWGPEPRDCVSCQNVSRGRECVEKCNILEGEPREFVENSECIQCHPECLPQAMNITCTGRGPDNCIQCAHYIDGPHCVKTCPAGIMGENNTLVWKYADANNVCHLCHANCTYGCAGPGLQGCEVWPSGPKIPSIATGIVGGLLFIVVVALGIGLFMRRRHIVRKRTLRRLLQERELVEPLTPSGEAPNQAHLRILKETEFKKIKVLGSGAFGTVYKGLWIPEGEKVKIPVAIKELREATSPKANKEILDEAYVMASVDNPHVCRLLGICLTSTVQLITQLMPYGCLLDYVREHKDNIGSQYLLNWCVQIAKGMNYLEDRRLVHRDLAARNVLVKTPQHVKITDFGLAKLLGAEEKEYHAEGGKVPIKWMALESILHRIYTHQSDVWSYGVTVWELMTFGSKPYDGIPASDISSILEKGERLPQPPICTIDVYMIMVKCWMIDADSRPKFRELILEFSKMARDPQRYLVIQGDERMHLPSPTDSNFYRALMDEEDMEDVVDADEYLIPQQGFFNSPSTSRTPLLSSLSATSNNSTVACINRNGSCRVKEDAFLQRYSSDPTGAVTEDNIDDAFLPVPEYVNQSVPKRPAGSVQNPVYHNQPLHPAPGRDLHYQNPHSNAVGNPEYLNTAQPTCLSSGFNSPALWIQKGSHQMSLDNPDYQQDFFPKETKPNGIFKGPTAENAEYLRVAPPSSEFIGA
T2 sequence (P51451 whole entry): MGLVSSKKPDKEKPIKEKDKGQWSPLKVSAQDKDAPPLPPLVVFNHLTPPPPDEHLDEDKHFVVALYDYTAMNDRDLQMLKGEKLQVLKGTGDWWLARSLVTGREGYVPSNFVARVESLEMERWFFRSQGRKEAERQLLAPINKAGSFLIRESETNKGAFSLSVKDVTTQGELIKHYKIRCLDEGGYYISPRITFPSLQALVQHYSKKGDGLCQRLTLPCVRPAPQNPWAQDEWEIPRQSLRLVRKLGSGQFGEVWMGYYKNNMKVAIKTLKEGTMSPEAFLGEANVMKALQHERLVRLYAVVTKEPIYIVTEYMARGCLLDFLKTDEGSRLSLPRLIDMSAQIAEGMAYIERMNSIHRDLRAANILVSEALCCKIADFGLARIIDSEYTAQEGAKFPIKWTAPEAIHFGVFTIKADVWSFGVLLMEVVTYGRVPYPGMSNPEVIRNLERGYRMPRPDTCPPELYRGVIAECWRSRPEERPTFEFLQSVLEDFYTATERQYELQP
Tyrosine-protein kinase BTK (Homo sapiens), Q06187 [C481S], sequence (Q06187 whole entry C481S): as the sequence (Q06187 whole entry) above, with C481S counted along it

Structure (SMILES) | IC50 (BaF3 [1]) [nM] | IC50 (cells) [nM] | inhibition [2] | inhibition [4] | IC50 [5] [nM] | IC50 [6] [nM] | inhibition [7] | inhibition [10] | IC50 [11] [nM] | IC50 [12] [nM] | other results
C=CC(=O)N1CCC(Oc2nn(C(C)(C)C)c3ncnc(N)c23)CC1 | 3620 | 604 | – | – | – | – | – | – | – | – | –
C=CC(=O)Nc1cc(Nc2nccc(-c3cn(C)c4ccccc34)n2)c(OC)cc1N(C)CCN(C)C [OSIMERTINIB] | 19 | 2.4 | – | – | – | – | – | – | – | – | –
C=CC(=O)N1CCC(Oc2nn(C(C)(C)C)c3ncnc(N)c23)C1 (centres undefined) | 5990 | 2400 | – | – | – | – | – | – | – | – | –
C=CC(=O)N1CCCC(Oc2nn(C(C)(C)C)c3ncnc(N)c23)C1 (centres undefined) | > 10000 | 10600 | – | – | – | – | – | – | – | – | –
CCC(=O)N1CC(Oc2nn(C(C)(C)C)c3ncnc(N)c23)C1 | – | – | inactive | inactive | > 10000 | > 30000 | inactive | inactive | > 10000 | > 10000 | IC50 [3]: > 10000 nM; IC50 [8]: > 30000 nM; inhibition (BaF3 [9]): inactive
C=CC(=O)N1CC(Oc2nn(C(C)(C)C)c3ncnc(N)c23)C1 | – | – | Active | Active | 59.2 | 865 | Active | Active | 105 | 242 | Activity [13]: 60%; Activity [14]: Active; Activity [15]: Active; Activity [16]: Active; Activity [17]: Active; Activity [18]: Active; Activity [19]: inactive; Activity [20]: Active; Activity [21]: 80%; Activity (HEK293T): inactive; inhibition (BaF3 [22]): Dose-Dependent Effect; IC50 [23]: > 10000 nM

Source: ChEMBL document CHEMBL5528037 (J Med Chem, 2024)
